# Laboratory results published in ChEMBL document CHEMBL4184120, “Target ROS to induce apoptosis and cell cycle arrest by 5,7-dimethoxy-1,4-naphthoquinone derivative” (Bioorg Med Chem Lett, 2018).
# The source made the active and inactive calls. No cut-off for these calls is given here.
# Columns and labels:
# [1] = tested on: A549; test: Antiproliferative activity against human A549 cells after 48 hrs by MTT assay; format: functional, cell-based; conditions: A549, 48 h
# [2] = tested on: NCI-H460; test: Antiproliferative activity against human NCI-H460 cells after 48 by hrs MTT assay; format: functional, cell-based
# [3] = Selectivity index, ratio of IC50 for human WI38 cells to IC50 for human HL60 cells; format: toxicity; conditions: WI38 cells and HL60 cells, read-out: Ratio IC50
# [4] = tested on: HeLa; test: Antiproliferative activity against human HeLa cells after 48 hrs by MTT assay; format: functional, cell-based
# [5] = tested on: WI-38; test: Antiproliferative activity against human WI38 cells after 48 hrs by MTT assay; format: cell-based; conditions: WI-38, 48 h
# [6] = tested on: HepG2; test: Antiproliferative activity against human HepG2 cells after 48 hrs by MTT assay; format: functional, cell-based; conditions: HepG2, 48 h
# [7] = tested on: K562; test: Antiproliferative activity against human K562 cells after 48 hrs by MTT assay; format: functional, cell-based; conditions: K562, 48 h
# [8] = tested on: HL-60; test: Antiproliferative activity against human HL60 cells after 48 hrs by MTT assay; format: functional, cell-based; conditions: HL-60, 48 h
# [9] = tested on: HL-60; test: Cell cycle arrest in human HL60 cells assessed as accumulation at G2/M phase at 5 mM after 48 hrs by propidium iodide staining based assay (reference value: 2.68%); format: functional
# [10] = tested on: HL-60; test: Cell cycle arrest in human HL60 cells assessed as accumulation at G0/G1 phase at 5 mM after 48 hrs by propidium iodide staining based assay (reference value: 50.88%); format: functional
# [11] = tested on: HL-60; test: Cell cycle arrest in human HL60 cells assessed as accumulation at S phase at 5 mM after 48 hrs by propidium iodide staining based assay (reference value: 46.44%); format: functional
# [12] = tested on: HL-60; test: Induction of apoptosis in human HL60 cells assessed as late apoptotic cells at 5 mM after 48 hrs by Annexin V-FITC/propidium iodide staining based flow cytometry (reference value: 1.23%); format: functional
# [13] = tested on: HL-60; test: Induction of apoptosis in human HL60 cells assessed as early apoptotic cells at 5 mM after 48 hrs by Annexin V-FITC/propidium iodide staining based flow cytometry (reference value: 3.13%); format: functional
# [14] = Redox potential of the compound in pH 7.4 PBS buffer assessed as half wave potential at 0.4 mM by cyclic voltametry; format: physicochemical; conditions: pH 7.4, 400 µM
# [15] = Redox potential of the compound in pH 7.4 PBS buffer assessed as reduction potential at 0.4 mM by cyclic voltametry; format: physicochemical; conditions: pH 7.4, 400 µM
# [16] = Redox potential of the compound in pH 7.4 PBS buffer assessed as oxidation potential at 0.4 mM by cyclic voltametry; format: physicochemical; conditions: pH 7.4, 400 µM
# [17] = tested on: HL-60; test: Induction of apoptosis in human HL60 cells assessed as late apoptotic cells at 4 uM after 48 hrs by Annexin V-FITC/propidium iodide staining based flow cytometry (reference value: 1.23%); format: functional
# [18] = tested on: HL-60; test: Induction of apoptosis in human HL60 cells assessed as early apoptotic cells after 48 hrs by Annexin V-FITC/propidium iodide staining based flow cytometry; format: functional, cell-based
# [19] = tested on: HL-60; test: Induction of apoptosis in human HL60 cells assessed as early apoptotic cells at 1 uM after 48 hrs by Annexin V-FITC/propidium iodide staining based flow cytometry (reference value: 3.13%); format: functional
# [20] = tested on: HL-60; test: Induction of apoptosis in human HL60 cells assessed as necrotic cells after 48 hrs by Annexin V-FITC/propidium iodide staining based flow cytometry; format: functional, cell-based
# [21] = tested on: HL-60; test: Induction of apoptosis in human HL60 cells assessed as early apoptotic cells at 4 uM incubated for 48 hrs starting from 1 hr post antioxidant NAC addition by Annexin V-FITC/propidium iodide staining based flow cytometry (reference value: 3.13%); format: functional
# [22] = tested on: HL-60; test: Induction of apoptosis in human HL60 cells assessed as late apoptotic cells at 1 uM after 48 hrs by Annexin V-FITC/propidium iodide staining based flow cytometry (reference value: 1.23%); format: functional
# [23] = tested on: HL-60; test: Induction of apoptosis in human HL60 cells assessed as condensed nuclei formation after 24 hrs by Hoechst-33342 staining-based fluorescence microscopic analysis; format: functional, cell-based
# [24] = tested on: HL-60; test: Induction of apoptosis in human HL60 cells assessed as nuclear fragmentation at 4 uM preincubated for 1 hr with antioxidant NAC measured after 24 hrs by Hoechst-33342 staining-based fluorescence microscopic analysis; format: functional, cell-based
# [25] = tested on: HL-60; test: Cell cycle arrest in human HL60 cells assessed as accumulation at S phase at 1 uM after 48 hrs by propidium iodide staining based assay (reference value: 46.44%); format: functional
# [26] = Selectivity ratio of IC50 for human K562 cells to IC50 for human HL60 cells; format: functional
# [27] = tested on: HL-60; test: Cell cycle arrest in human HL60 cells assessed as accumulation at S phase at 2 uM after 48 hrs by propidium iodide staining based assay (reference value: 46.44%); format: functional
# [28] = tested on: HL-60; test: Cell cycle arrest in human HL60 cells assessed as accumulation at G2/M phase at 2 uM after 48 hrs by propidium iodide staining based assay (reference value: 2.68%); format: functional
# [29] = tested on: HL-60; test: Induction of apoptosis in human HL60 cells assessed as early apoptotic cells at 2 uM after 48 hrs by Annexin V-FITC/propidium iodide staining based flow cytometry (reference value: 3.13%); format: functional
# [30] = tested on: HL-60; test: Cell cycle arrest in human HL60 cells assessed as accumulation at G0/G1 phase at 1 uM after 48 hrs by propidium iodide staining based assay (reference value: 50.88%); format: functional
# [31] = tested on: HL-60; test: Cell cycle arrest in human HL60 cells assessed as accumulation at G0/G1 phase at 4 uM after 48 hrs by propidium iodide staining based assay (reference value: 50.88%); format: functional
# [32] = tested on: HL-60; test: Induction of apoptosis in human HL60 cells assessed as early apoptotic cells at 4 uM after 48 hrs by Annexin V-FITC/propidium iodide staining based flow cytometry (reference value: 3.13%); format: functional
# [33] = tested on: HL-60; test: Cell cycle arrest in human HL60 cells assessed as accumulation at G2/M phase at 1 uM after 48 hrs by propidium iodide staining based assay (reference value: 2.68%); format: functional
# [34] = tested on: HL-60; test: Cell cycle arrest in human HL60 cells assessed as accumulation at G0/G1 phase at 2 uM after 48 hrs by propidium iodide staining based assay (reference value: 50.88%); format: functional
# [35] = tested on: HL-60; test: Induction of apoptosis in human HL60 cells assessed as late apoptotic cells after 48 hrs by Annexin V-FITC/propidium iodide staining based flow cytometry; format: functional, cell-based
# [36] = tested on: HL-60; test: Cell cycle arrest in human HL60 cells assessed as accumulation at G2/M phase at 4 uM after 48 hrs by propidium iodide staining based assay (reference value: 2.68%); format: functional
# [37] = tested on: HL-60; test: Induction of apoptosis in human HL60 cells assessed as nuclear fragmentation after 24 hrs by Hoechst-33342 staining-based fluorescence microscopic analysis; format: functional, cell-based
# [38] = tested on: HL-60; test: Induction of apoptosis in human HL60 cells assessed as late apoptotic cells at 2 uM after 48 hrs by Annexin V-FITC/propidium iodide staining based flow cytometry (reference value: 1.23%); format: functional
# [39] = tested on: HL-60; test: Induction of apoptosis in human HL60 cells assessed as condensed nuclei formation at 4 uM preincubated for 1 hr with antioxidant NAC measured after 24 hrs by Hoechst-33342 staining-based fluorescence microscopic analysis; format: functional, cell-based
# [40] = tested on: HL-60; test: Cell cycle arrest in human HL60 cells assessed as accumulation at S phase at 4 uM incubated for 48 hrs starting from 1 hr post antioxidant NAC addition by propidium iodide staining based assay (reference value: 46.44%); format: functional
# [41] = tested on: HL-60; test: Induction of ROS generation in human HL60 cells after 6 hrs by DCFH-DA staining-based fluorescence microscopic analysis; format: functional, cell-based
# [42] = tested on: HL-60; test: Cell cycle arrest in human HL60 cells assessed as accumulation at G2/M phase at 4 uM incubated for 48 hrs starting from 1 hr post antioxidant NAC addition by propidium iodide staining based assay (reference value: 2.68%); format: functional
# [43] = tested on: HL-60; test: Induction of ROS generation in human HL60 cells at 4 uM incubated for 6 hrs starting from 1 hr post antioxidant NAC addition by DCFH-DA staining-based fluorescence microscopic analysis; format: functional, cell-based
# [44] = tested on: HL-60; test: Cell cycle arrest in human HL60 cells assessed as accumulation at S phase at 4 uM after 48 hrs by propidium iodide staining based assay (reference value: 46.44%); format: functional
# [45] = tested on: HL-60; test: Induction of apoptosis in human HL60 cells assessed as late apoptotic cells at 4 uM incubated for 48 hrs starting from 1 hr post antioxidant NAC addition by Annexin V-FITC/propidium iodide staining based flow cytometry (reference value: 1.23%); format: functional
# [46] = tested on: HL-60; test: Cell cycle arrest in human HL60 cells assessed as accumulation at G0/G1 phase at 4 uM incubated for 48 hrs starting from 1 hr post antioxidant NAC addition by propidium iodide staining based assay (reference value: 50.88%); format: functional
compound,measurement,setting,value
COc1ccc(CCC2=C(Cl)C(=O)c3cc(OC)cc(OC)c3C2=O)cc1,IC50,[1],83.1 µM
same,IC50,[2],> 100 µM
same,selectivity ratio,[3],1.8
same,IC50,[4],29.3 µM
same,IC50,[5],26.8 µM
same,IC50,[6],37.1 µM
same,IC50,[7],19.2 µM
same,IC50,[8],15.3 µM
CC(=O)N[C@@H](CS)C(=O)O [ACETYLCYSTEINE],Activity,[9],2.52%
same,Activity,[10],57.36%
same,Activity,[11],40.12%
same,Activity,[12],2.43%
same,Activity,[13],1.56%
CCCCC1=C(OC)C(=O)c2cc(OC)cc(OC)c2C1=O,IC50,[1],> 100 µM
same,IC50,[2],75.2 µM
same,Activity,[14],-0.249 V
same,IC50,[4],52.4 µM
same,Activity,[15],-0.311 V
same,IC50,[6],55.9 µM
same,Activity,[16],-0.187 V
same,IC50,[8],61.4 µM
CCCCC1=C(Cl)C(=O)c2cc(OC)cc(OC)c2C1=O,Activity,[17],40.4%
same,Activity,[18],Dose-dependent effect
same,Activity,[19],4.48%
same,IC50,[1],24.1 µM
same,Activity,[20],Dose-dependent effect
same,Activity,[21],2.08%
same,IC50,[2],38.7 µM
same,Activity,[14],-0.202 V
same,Activity,[22],14.9%
same,selectivity ratio,[3],10.7
same,Activity,[23],Dose-dependent effect
same,Activity,[24],Active
same,Activity,[25],51.13%
same,Ratio IC50,[26],8
same,IC50,[4],22.3 µM
same,Activity,[27],47.42%
same,IC50,[5],40.7 µM
same,Activity,[28],17.69%
same,Activity,[29],7.35%
same,Activity,[30],35.72%
same,Activity,[31],18.18%
same,Activity,[15],-0.235 V
same,IC50,[6],23.1 µM
same,Activity,[32],26.6%
same,Activity,[33],13.15%
same,IC50,[7],32.3 µM
same,Activity,[34],34.89%
same,Activity,[35],Dose-dependent effect
same,Activity,[36],31.93%
same,Activity,[37],Dose-dependent effect
same,Activity,[38],20.9%
same,Activity,[39],Active
same,Activity,[40],43.67%
same,Activity,[16],-0.169 V
same,Activity,[41],Dose-dependent effect
same,Activity,[42],7.8%
same,Activity,[43],inactive
same,IC50,[8],3.8 µM
same,Activity,[44],49.89%
same,Activity,[45],6.78%
same,Activity,[46],48.52%
COc1cc(OC)c2c(c1)C(=O)C(Cl)=C(CCC1CCCCC1)C2=O,IC50,[1],63 µM
same,IC50,[2],61 µM
same,selectivity ratio,[3],3.7
same,IC50,[4],21.2 µM
same,IC50,[5],34.2 µM
same,IC50,[6],41.4 µM
same,IC50,[7],29.9 µM
same,IC50,[8],9.2 µM
CCCCC1=C(O)C(=O)c2cc(OC)cc(OC)c2C1=O,IC50,[1],65.4 µM
same,IC50,[2],> 100 µM
same,Activity,[14],-0.278 V
same,IC50,[4],> 100 µM
same,Activity,[15],-0.328 V
same,IC50,[6],95.9 µM
same,Activity,[16],-0.227 V
same,IC50,[8],> 100 µM
